Measurements taken from patent US8648076B2, “Cysteine protease inhibitors and their therapeutic applications” (Hybrigenics SA, priority 2005, dated 2014).
Where two headings read alike, the source gives them in different places.

Tests used:
[1] = tested on: PC-3 prostate cancer cells; test: PC3 cell viability and proliferation assay (MTS); type: cell-based; details: Homo sapiens, PC-3, 72 h, read-out: PC3 D3 GI50
USP7 = molecular target: T1, USP7 (Homo sapiens, UniProt Q93009); test: USP7 activity assay; type: biochemical
T1 construct: His tag (from pFastBac-HT vector) (N); made in house; host or cells: insect cells (Sf9 or High Five), baculovirus
T1 sequence (Q93009 whole entry): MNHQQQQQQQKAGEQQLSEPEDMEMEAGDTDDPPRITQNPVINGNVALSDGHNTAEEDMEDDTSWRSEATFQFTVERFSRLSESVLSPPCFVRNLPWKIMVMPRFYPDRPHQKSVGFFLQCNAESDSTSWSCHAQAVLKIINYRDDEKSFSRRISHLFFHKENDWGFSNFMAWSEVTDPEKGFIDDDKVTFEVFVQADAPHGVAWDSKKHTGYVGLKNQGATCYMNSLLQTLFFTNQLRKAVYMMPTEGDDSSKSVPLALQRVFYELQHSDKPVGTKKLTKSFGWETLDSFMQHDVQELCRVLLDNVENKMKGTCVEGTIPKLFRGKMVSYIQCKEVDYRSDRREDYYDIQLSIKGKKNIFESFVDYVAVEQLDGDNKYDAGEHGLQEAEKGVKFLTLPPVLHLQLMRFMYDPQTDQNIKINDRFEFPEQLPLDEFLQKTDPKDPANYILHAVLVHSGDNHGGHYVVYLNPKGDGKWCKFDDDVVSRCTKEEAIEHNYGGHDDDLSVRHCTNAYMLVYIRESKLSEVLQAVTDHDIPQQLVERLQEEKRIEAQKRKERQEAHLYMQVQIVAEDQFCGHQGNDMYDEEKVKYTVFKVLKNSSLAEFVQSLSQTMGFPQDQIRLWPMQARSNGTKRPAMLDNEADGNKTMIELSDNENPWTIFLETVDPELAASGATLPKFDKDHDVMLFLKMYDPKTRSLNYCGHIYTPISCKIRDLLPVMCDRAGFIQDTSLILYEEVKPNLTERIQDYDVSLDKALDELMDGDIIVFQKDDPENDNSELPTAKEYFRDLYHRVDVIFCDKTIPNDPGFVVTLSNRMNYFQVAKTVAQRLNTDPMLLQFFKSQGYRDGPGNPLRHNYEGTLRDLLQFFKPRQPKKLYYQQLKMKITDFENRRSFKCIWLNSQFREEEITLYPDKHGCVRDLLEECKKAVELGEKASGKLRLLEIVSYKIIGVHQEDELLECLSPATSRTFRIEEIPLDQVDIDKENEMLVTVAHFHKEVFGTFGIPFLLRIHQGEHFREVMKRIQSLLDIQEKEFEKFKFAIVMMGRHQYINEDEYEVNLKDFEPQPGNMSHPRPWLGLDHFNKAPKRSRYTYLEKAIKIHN

Uch-L3 = molecular target: T2, Uch-L3 (Homo sapiens, UniProt P15374); test: UCH-L3 activity assay; type: biochemical; details: 400 nM Ub-AMC, 13 pM enzyme, 30 min pre-incubation at 25° C., 60 min at 37° C.; sigmoidal fit; AF: Autofluorescent; read-out: Uch-L3 (inhibition of cysteine protease activity)
T2 sequence (P15374 1-230): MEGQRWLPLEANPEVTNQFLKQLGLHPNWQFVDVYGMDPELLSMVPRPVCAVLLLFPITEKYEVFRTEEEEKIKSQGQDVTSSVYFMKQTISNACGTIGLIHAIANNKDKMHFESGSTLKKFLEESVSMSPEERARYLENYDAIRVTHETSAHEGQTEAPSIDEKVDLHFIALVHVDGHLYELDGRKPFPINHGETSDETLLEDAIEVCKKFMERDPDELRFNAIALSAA
Method: (§1) Bovine Serum Albumin 0.05 mg·ml^−1 pH7.6). Compounds stocks (100 mM) were stored at −20° C. in DMSO. […] Reactions were performed as duplicates in Black LJL 96 well plates (HE microplates; Molecular Devices; 20 μl final reaction volume). The substrate concentration for Uch-L3 was 400 nM Ub-AMC (Boston Biochem). The concentration of the enzyme (Uch-L3) in specificity assays was 13 pM. The concentrations were determined in order to perform specificity assays under initial velocities at fixed substrate concentration. Compounds were pre-incubated with enzymes for 30 minutes at 25° C. Reactions were initiated by addition of substrate to the plates containing the enzymes (+/−compounds) diluted in assay buffer. Reactions were incubated for 60 minutes at 37° C. Reactions were stopped by adding acetic acid (100 mM final). Readings were performed on a Pherastar Fluorescent Reader (BMG). δ Emission 380 nm; δ Excitation=460 nm. Data (mean values+/− standard deviation) were analyzed as % of control (no compound) and plotted as percentage versus the Log of the compound concentration using GraphPad (Prism). Data were fitted to a sigmoidal model (variable slope).

Caspase 3 = molecular target: T3, Caspase 3 (Homo sapiens, UniProt P42574); test: Caspase 3 activity assay; type: biochemical; details: 500 nM Ac-DEVD-AMC, 3.2 nM enzyme, 30 min pre-incubation at 25° C., 60 min at 37° C.; sigmoidal fit; AF: Autofluorescent; read-out: Casp3 (inhibition of cysteine protease activity)
T3 sequence (P42574 29-175 limits assumed): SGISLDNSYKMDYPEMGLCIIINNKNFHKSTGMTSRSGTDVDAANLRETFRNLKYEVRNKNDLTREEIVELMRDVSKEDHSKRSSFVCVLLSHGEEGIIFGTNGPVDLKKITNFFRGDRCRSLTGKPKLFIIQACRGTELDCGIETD
T3 sequence (P42574 176-277 limits assumed): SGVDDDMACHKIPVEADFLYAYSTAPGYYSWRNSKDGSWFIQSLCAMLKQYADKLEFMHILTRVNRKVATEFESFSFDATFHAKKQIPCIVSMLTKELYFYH
Method: as §1, with “Compounds” for “Bovine Serum Albumin 0.05 mg·ml^−1 pH7.6). Compounds”, “caspase 3 specificity assay” for “Uch-L3”, “500” for “400”, “(Ac-DEVD-AMC; Promega). […]” for “Ub-AMC (Boston Biochem). The concentration of the enzyme (Uch-L3) in specificity assays was 13 pM.”

[2] = tested on: HCT116 colon cancer cells; test: HCT116 cell viability and proliferation assay (MTS); type: cell-based; details: Homo sapiens, read-out: HCT116 D3 GI50
[3] = PC3 cells, 72 hours incubation, MTS, mean of 3 independent experiments
[4] = 400 nM Ub-AMC, 152 pM enzyme, 30 min pre-incubation at 25° C., 60 min at 37° C., sigmoidal fit, read-out: USP 7 (inhibition of cysteine protease activity)
[5] = HCT-116, HCT116 cells, 72 hours incubation, MTS, mean of 3 independent experiments

| SMILES | GI50 [1] | IC50 (USP7) | IC50 (Uch-L3) | IC50 (Caspase 3) | GI50 ([2]; HCT-116, 72 h) | GI50 [1, 3] | IC50 (USP7; [4]) | GI50 [2, 5] |
| --- | --- | --- | --- | --- | --- | --- | --- | --- |
| CON=C1c2ccccc2-c2nc(C#N)c(C#N)nc21 [Example 13a, 9-(methoxyimino)-9H-indeno[1,2-b]pyrazine-2,3-dicarbonitrile] | 430 nM | > 100000 nM | 2200 nM | 52000 nM | 390 nM | – | – | – |
| N#Cc1nc2c(nc1C#N)-c1ccccc1/C2=N/Oc1ccccc1 [Example 13e, 9-Phenoxyimino-9H-indeno[1,2-b]pyrazine-2,3-dicarbonitrile] | – | – | 540 nM | > 100000 nM | – | 530 nM | > 100000 nM | 540 nM |
| Cc1cccc2c1Cc1nc(C#N)c(C#N)nc1-2 [Example 16c, 8-Methyl-9H-indeno[1,2-b]pyrazine-2,3-dicarbonitrile] | – | – | > 100000 nM | > 100000 nM | – | 3370 nM | > 100000 nM | 1470 nM |
| COc1ccc2c(c1)-c1nc(C#N)c(C#N)nc1C2=O [Example 17a, 6-Methoxy-9-oxo-9H-indeno[1,2-b]pyrazine-2,3-dicarbonitrile] | – | – | 7000 nM | 10000 nM | – | 1400 nM | > 100000 nM | 610 nM |
| COc1cc2c(cc1OC)-c1nc(C#N)c(C#N)nc1C2=O [Example 17b, 6,7-Dimethoxy-9-oxo-9H-indeno[1,2-b]pyrazine-2,3-dicarbonitrile] | – | – | 5400 nM | 51000 nM | – | 920 nM | 10200 nM | 530 nM |
| Cc1cccc2c1C(=O)c1nc(C#N)c(C#N)nc1-2 [Example 17c, 8-Methyl-9-oxo-9H-indeno[1,2-b]pyrazine-2,3-dicarbonitrile] | – | – | 2000 nM | 13000 nM | – | 930 nM | > 100000 nM | 390 nM |
| COc1ccc2c(c1OC)C(=O)c1nc(C#N)c(C#N)nc1-2 [Example 17d, 7,8-Dimethoxy-9-oxo-9H-indeno[1,2-b]pyrazine-2,3-dicarbonitrile] | – | – | 770 nM | 1800 nM | – | 910 nM | 18000 nM | 680 nM |
| Cc1ccc2c(c1)-c1nc(C#N)c(C#N)nc1C2=O [Example 17e, 6-Methyl-9-oxo-9H-indeno[1,2-b]pyrazine-2,3-dicarbonitrile] | – | – | 2100 nM | 3300 nM | – | 1320 nM | 7200 nM | 300 nM |
| COc1ccc(OC)c2c1C(=O)c1nc(C#N)c(C#N)nc1-2 [Example 17f, 5,8-Dimethoxy-9-oxo-9H-indeno[1,2-b]pyrazine-2,3-dicarbonitrile] | – | – | 600 nM | 2000 nM | – | 800 nM | 12700 nM | 930 nM |
| N#Cc1nc2c(nc1C#N)-c1ccc(Cl)cc1C2=O [Example 17g, 7-Chloro-9-oxo-9H-indeno[1,2-b]pyrazine-2,3-dicarbonitrile] | – | – | 70 nM | 290 nM | – | 1110 nM | 530 nM | 320 nM |
| N#Cc1nc2c(nc1C#N)-c1ccc(F)cc1C2=O [Example 17h, 7-Fluoro-9-oxo-9H-indeno[1,2-b]pyrazine-2,3-dicarbonitrile] | – | – | 330 nM | 1000 nM | – | 570 nM | 4300 nM | 160 nM |
| COc1ccc2c(c1)C(=O)c1nc(C#N)c(C#N)nc1-2 [Example 17i, 7-Methoxy-9-oxo-9H-indeno[1,2-b]pyrazine-2,3-dicarbonitrile] | – | – | 3100 nM | 2000 nM | – | 1270 nM | > 100000 nM | 560 nM |
| N#Cc1nc2c(nc1C#N)-c1ccc(O)cc1C2=O [Example 17j, 7-Hydroxy-9-oxo-9H-indeno[1,2-b]pyrazine-2,3-dicarbonitrile] | – | – | 8000 nM | 47000 nM | – | > 10000 nM | 66000 nM | > 10000 nM |
| N#Cc1nc2sc3ccccc3c2nc1C#N [Example 19, benzo[4,5]thieno[2,3-b]pyrazine-2,3-dicarbonitrile] | – | – | > 100000 nM | > 100000 nM | – | 4200 nM | > 100000 nM | 10000 nM |
| N#Cc1nc2c(nc1C#N)C(=O)c1ccccc1C2=O [Example 20, 5,10-dioxo-5,10-dihydro-benzo[g]quinoxaline-2,3-dicarbonitrile] | 1260 nM | > 100000 nM | 39600 nM | > 100000 nM | 780 nM | – | – | – |
| N#CNc1nc2c(nc1C#N)C(=O)c1ccccc1-2 [Example 21, 2-cyano-9-oxo-9H-indeno[1,2-b]pyrazin-3-yl-cyanamide] | – | – | > 100000 nM | > 100000 nM | – | > 10000 nM | > 100000 nM | > 10000 nM |
| CCSc1nc2c(nc1C#N)C(=O)c1ccccc1-2 [Example 23, 3-ethylsulfanyl-9-oxo-9H-indeno[1,2-b]pyrazine-2-carbonitrile] | – | – | 86000 nM | > 100000 nM | – | > 10000 nM | > 100000 nM | > 10000 nM |
| N#Cc1nc2c(nc1C#N)-c1ccccc1C2=NOCCOc1ccccc1 [Example 27a, 9-(2-Phenoxy-ethoxyimino)-9H-indeno[1,2-b]pyrazine-2,3-dicarbonitrile] | 1000 nM | > 100000 nM | 10500 nM | > 100000 nM | 549 nM | – | – | – |
| N#Cc1nc2c(nc1C#N)-c1ccc(Cl)cc1C2=NOCCOc1ccccc1 [Example 27b, 7-Chloro-9-(2-phenoxy-ethoxyimino)-9H-indeno[1,2-b]pyrazine-2,3-dicarbonitrile] | 259 nM | > 100000 nM | 1700 nM | > 100000 nM | 294 nM | – | – | – |
| C=CCON=C1c2ccc(Cl)cc2-c2nc(C#N)c(C#N)nc21 [Example 27c, 9-Allyloxyimino-6-chloro-9H-indeno[1,2-b]pyrazine-2,3-dicarbonitrile] | 803 nM | 3500 nM | 502 nM | 2830 nM | 421 nM | – | – | – |
| Cc1c(F)ccc2c1C(=O)c1nc(C#N)c(C#N)nc1-2 [Example 30, 7-Fluoro-8-methyl-9-oxo-9H-indeno[1,2-b]pyrazine-2,3-dicarbonitrile] | – | – | 339 nM | 1070 nM | – | 854 nM | 2220 nM | 705 nM |
| N#Cc1nc2c(nc1C#N)-c1cc(Cl)c(Cl)cc1C2=O [Example 31, 6,7-dichloro-9-oxo-9H-indeno[1,2-b]pyrazine-2,3-dicarbonitrile] | 2430 nM | 591 nM | 104 nM | 158 nM | 753 nM | – | – | – |
| CCc1ccc2c(c1)-c1nc(C#N)c(C#N)nc1C2=O [Example 32, 6-ethyl-9-oxo-9H-indeno[1,2-b]pyrazine-2,3-dicarbonitrile] | 1430 nM | 2590 nM | 258 nM | 3600 nM | 385 nM | – | – | – |
